Source: patent US9809623B2, “α4β7 peptide monomer and dimer antagonists” (Protagonist Therapeutics, Inc., priority 2014, dated 2017)
Where two headings read alike, the source gives them in different places. Numbered stars: 1 amine (or outer) side, 2 acyl side, 3 side chain; on linkers, the order of the positions; unused ones are H or OH. Bridge positions count the residues as written; N and C are the ends. Square brackets hold non-standard residues; d marks the D form. Peptide text beside a SMILES is read from it. I, II: the chains in the order shown. X2 = O=C(CCOCCOCCOCCOCCOCCOCCOCCOCCOCCOCCOCCOCCOCCOCCOCCOCCOCCOCCOCCOCCOCCOCCOCCOCCOCCC(=O)[*:2])[*:1]; Phe(4-tBu) = CC(C)(C)c1ccc(C[C@H](N)C(=O)O)cc1; Diglycolyl = O=C(COCC(=O)[*:2])[*:1]; NMeR = CN[C@@H](CCCNC(=N)N)C(=O)O; β3hE = N[C@@H](CCC(=O)O)CC(=O)O; Pen = CC(C)(S)[C@H](N)C(=O)O

Tests used:
α4β1 = α4β1 (Homo sapiens, UniProt P05556+P13612); experiment: α4β1-VCAM Cell Adhesion Assay (Jurkat E6.1 human cells); type: cell-based; design: host or cells: Jurkat E6.1 human T cells
Procedure: Jurkat E6.1 human cells (Sigma #88042803) were cultured in RPMI 1640 HEPES medium (Invitrogen #22400-089) supplemented with 10% serum (Fetal Bovine Serum, Invitrogen #16140-071), 1 mM sodium pyruvate (Invitrogen #11360-070), 2 mM L-glutamine (Invitrogen #25030-081) and Penicillin-Streptomycin (Invitrogen #15140-122) at 100 units of penicillin and 100 μg of streptomycin per ml. The cells were washed two times in DMEM medium (ATCC #30-2002) supplemented with 0.1% BSA, 10 mM HEPES pH 7 and 1 mM MnCl2. The cells were re-suspended in supplemented DMEM medium at a density of 4×10^6 cells/ml.
A Nunc MaxiSorp plate was coated with rh VCAM-1/CD106 Fc chimera (R&D #862-VC) at 400 ng per well in 50 ul per well in 1×PBS and incubated at 4° C. overnight. The solution was then removed by shaking, blocked with 250 ul per well PBS containing 1% BSA, and incubated at 37° C. for 1 hr. The solution was removed by shaking. Peptides were diluted by serial dilution in a final volume of 50 ul per well (2× concentration). To each well, 50 ul of cells (200,000 cells) were added and the plate was incubated at 37° C., 5% CO2 for 30-45 min to allow cell adhesion. The wells were washed manually three times (100 ul per wash) with supplemented DMEM. After the final wash, 100 ul/well of supplemented DMEM and 10 ul/well of MTT reagent (ATTC cat#30-1010K) were added. The plate was incubated at 37° C., 5% CO2 for 2-3 hrs until a purple precipitate was visible. 100 ul of Detergent Reagent (ATTC cat#30-1010K) was added to each well. The plate was covered from the light, wrapped in Parafilm to prevent evaporation, and left overnight at room temperature in the dark. The plate was shaken for 5 min and the absorbance at 570 nm was measured. To calculate the dose response, the absorbance value of control wells not containing cells was subtracted from each test well.

[1] = Simulated Intestinal Fluid (SIF) Stability Assay; type: in vitro ADME, porcine; conditions: for half-life at 22 μM: pig
How it was run: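 Peptides (22 μM final) incubated at 37 °C in FASSIF (pH 6.5) with 1% porcine pancreatin; aliquots quenched at various times and analyzed by LC-MS/MS against internal standard. Half-life from first-order exponential decay fit of percent remaining.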

[2] = Dithiothreitol (DTT) Redox Stability Assay; type: physicochemical; conditions: Table 4-C, t1/2, 0.5 mM DTT
Procedure: For each peptide tested, the DTT stability assay was conducted by adding 5 μl of a 10 mM peptide stock solution in DMSO to 1 ml of 100 mM Tris-Cl, pH 7.5 (final peptide concentration is 50 μM). At time 0 min, 5 ul of a freshly thawed 100 mM DTT solution was added to the incubation tube containing the peptide, such that the final DTT concentration was 0.5 mM. The reactions were incubated at room temperature. At different time points up to 120 minutes (20 min, 40 min, 80 min, 120 min), 50 ul aliquots were removed, and the reaction was quenched by adding 10 μl of 5M acetic acid. To measure disappearance of the parent peptide, the quenched samples (30 μl) were analyzed by reverse phase HPLC and UV absorbance at 220 nm. The fraction oxidized remaining was graphed versus time, and half-lives were calculated by fitting to a first-order exponential decay equation using Excel.

[3] = Table 3-B, Selectivity (α4β1), range classes, read-out: α4β1 cell IC50
[4] = simulated intestinal fluid (SIF) with 1% porcine pancreatin, pH 6.5, Table 4-C, t1/2, > means assay stopped at that time, read-out: SIF (porcine) Min
[5] = Table 4-B, read-out: Cell Adhesion α4β1 IC50
[6] = simulated intestinal fluid (SIF) with 1% porcine pancreatin, pH 6.5, Table 3-B, > means experiment was stopped at that time and half life was not reached, read-out: Stabilty SIF t1/2

Sequence of α4β1 (P13612 34-1032): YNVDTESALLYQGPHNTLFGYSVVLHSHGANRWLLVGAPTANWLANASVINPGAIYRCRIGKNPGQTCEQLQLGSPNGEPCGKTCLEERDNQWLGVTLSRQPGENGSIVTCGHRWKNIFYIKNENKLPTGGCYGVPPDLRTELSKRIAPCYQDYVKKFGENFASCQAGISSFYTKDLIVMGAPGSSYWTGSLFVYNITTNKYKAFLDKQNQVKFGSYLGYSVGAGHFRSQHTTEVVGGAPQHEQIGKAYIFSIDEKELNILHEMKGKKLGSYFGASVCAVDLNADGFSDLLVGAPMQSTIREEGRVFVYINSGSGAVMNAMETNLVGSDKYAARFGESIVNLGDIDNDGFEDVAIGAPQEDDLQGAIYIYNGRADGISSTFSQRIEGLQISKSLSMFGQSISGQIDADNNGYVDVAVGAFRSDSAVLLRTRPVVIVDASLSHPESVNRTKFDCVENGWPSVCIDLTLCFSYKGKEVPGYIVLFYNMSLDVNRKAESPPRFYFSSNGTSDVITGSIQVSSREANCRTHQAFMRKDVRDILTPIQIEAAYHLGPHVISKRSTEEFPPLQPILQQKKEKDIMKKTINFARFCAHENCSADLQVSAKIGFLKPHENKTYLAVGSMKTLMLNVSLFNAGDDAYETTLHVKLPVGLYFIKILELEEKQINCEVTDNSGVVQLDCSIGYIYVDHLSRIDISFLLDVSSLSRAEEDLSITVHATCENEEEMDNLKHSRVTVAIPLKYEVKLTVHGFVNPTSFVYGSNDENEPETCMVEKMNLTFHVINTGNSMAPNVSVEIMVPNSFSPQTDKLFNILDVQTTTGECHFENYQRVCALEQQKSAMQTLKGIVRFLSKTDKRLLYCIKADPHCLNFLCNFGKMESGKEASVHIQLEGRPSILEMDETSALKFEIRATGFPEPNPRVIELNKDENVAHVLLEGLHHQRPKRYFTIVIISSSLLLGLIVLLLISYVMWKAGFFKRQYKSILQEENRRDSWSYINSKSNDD
Sequence of α4β1 (P05556 21-798): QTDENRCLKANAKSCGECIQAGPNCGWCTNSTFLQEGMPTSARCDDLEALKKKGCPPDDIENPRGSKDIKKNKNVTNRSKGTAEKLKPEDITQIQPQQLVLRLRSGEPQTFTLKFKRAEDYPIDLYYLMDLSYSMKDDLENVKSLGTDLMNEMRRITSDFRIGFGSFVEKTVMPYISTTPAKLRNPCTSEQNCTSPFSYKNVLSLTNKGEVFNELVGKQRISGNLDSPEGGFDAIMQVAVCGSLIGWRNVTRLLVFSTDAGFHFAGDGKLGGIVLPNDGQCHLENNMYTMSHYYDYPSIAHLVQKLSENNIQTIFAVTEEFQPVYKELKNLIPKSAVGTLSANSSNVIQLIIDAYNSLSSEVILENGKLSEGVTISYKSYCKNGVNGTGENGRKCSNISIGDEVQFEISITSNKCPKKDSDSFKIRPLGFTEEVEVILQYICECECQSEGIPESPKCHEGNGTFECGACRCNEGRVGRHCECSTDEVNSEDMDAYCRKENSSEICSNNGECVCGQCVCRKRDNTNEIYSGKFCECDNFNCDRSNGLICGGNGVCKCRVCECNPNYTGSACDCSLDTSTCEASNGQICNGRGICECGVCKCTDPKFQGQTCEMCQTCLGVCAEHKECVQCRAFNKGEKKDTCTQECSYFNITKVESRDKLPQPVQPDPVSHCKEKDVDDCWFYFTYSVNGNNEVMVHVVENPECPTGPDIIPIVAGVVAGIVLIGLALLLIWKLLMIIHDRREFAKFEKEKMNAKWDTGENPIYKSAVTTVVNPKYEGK

| Structure (SMILES) | IC50 (α4β1; [3]) [µM] | half-life at 22 μM [1, 4] [h] | DTT Min [2] [min] | other results |
| --- | --- | --- | --- | --- |
| CC(=O)N[C@@H]1C(=O)N(C)[C@@H](CCCNC(=N)N)C(=O)N[C@@H](CO)C(=O)N[C@@H](CC(=O)O)C(=O)N[C@@H]([C@@H](C)O)C(=O)N[C@@H](CC(C)C)C(=O)N[C@H](C(=O)N[C@@H](Cc2c[nH]c3ccccc23)C(=O)N[C@@H](CCC(=O)O)C(=O)N[C@H](CCCCNC(=O)COCC(=O)NCCCC[C@@H](NC(=O)[C@H](CCC(=O)O)NC(=O)[C@H](Cc2c[nH]c3ccccc23)NC(=O)[C@H]2NC(=O)[C@H](CC(C)C)NC(=O)[C@H]([C@@H](C)O)NC(=O)[C@H](CC(=O)O)NC(=O)[C@H](CO)NC(=O)[C@H](CCCNC(=N)N)N(C)C(=O)[C@@H](NC(C)=O)C(C)(C)SSC2(C)C)C(=O)O)C(=O)O)C(C)(C)SSC1(C)C [compound 78] (I: Ac-[Pen][NMeR]SDTL[Pen]WE[dK]-OH / II: Ac-[Pen][NMeR]SDTL[Pen]WE[dK]-OH; disulfide I:1-I:7, II:1-II:7; linker I:10-II:10 via Diglycolyl) | > 100 | – | – | – |
| CC(=O)N[C@H]1CSSC(C)(C)[C@@H](C(=O)N[C@@H](CCC(=O)O)C(=O)N[C@H](CCCCNC(=O)COCC(=O)NCCCC[C@@H](NC(=O)[C@H](CCC(=O)O)NC(=O)[C@H]2NC(=O)[C@H](CC(C)C)NC(=O)[C@H]([C@@H](C)O)NC(=O)[C@H](CC(=O)O)NC(=O)[C@H](CO)NC(=O)[C@H](CCCNC(=N)N)N(C)C(=O)[C@@H](NC(C)=O)CSSC2(C)C)C(N)=O)C(N)=O)NC(=O)[C@H](CC(C)C)NC(=O)[C@H]([C@@H](C)O)NC(=O)[C@H](CC(=O)O)NC(=O)[C@H](CO)NC(=O)[C@H](CCCNC(=N)N)N(C)C1=O [compound 205, (Ac-C-N-Me-R-S-D-T-L-Pen-E-k-NH2)2-DIG] (I: Ac-C[NMeR]SDTL[Pen]E[dK]-NH2 / II: Ac-C[NMeR]SDTL[Pen]E[dK]-NH2; disulfide I:1-I:7, II:1-II:7 (inferred); linker I:9-II:9 via Diglycolyl (inferred)) | – | > 6 | 42 | – |
| CC(=O)N[C@@H]1C(=O)N(C)[C@@H](CCCNC(=N)N)C(=O)N[C@@H](CO)C(=O)N[C@@H](CC(=O)O)C(=O)N[C@@H]([C@@H](C)O)C(=O)N[C@@H](CC(C)C)C(=O)N[C@H](C(=O)N[C@@H](Cc2ccc(C(C)(C)C)cc2)C(=O)N[C@@H](CCC(=O)O)CC(=O)N[C@H](CCCCNC(=O)COCC(=O)NCCCC[C@@H](NC(=O)C[C@H](CCC(=O)O)NC(=O)[C@H](Cc2ccc(C(C)(C)C)cc2)NC(=O)[C@H]2NC(=O)[C@H](CC(C)C)NC(=O)[C@H]([C@@H](C)O)NC(=O)[C@H](CC(=O)O)NC(=O)[C@H](CO)NC(=O)[C@H](CCCNC(=N)N)N(C)C(=O)[C@@H](NC(C)=O)C(C)(C)SSC2(C)C)C(N)=O)C(N)=O)C(C)(C)SSC1(C)C [compound 132] (I: Ac-[Pen][NMeR]SDTL[Pen][Phe(4-tBu)][β3hE][dK]-NH2 / II: Ac-[Pen][NMeR]SDTL[Pen][Phe(4-tBu)][β3hE][dK]-NH2; disulfide I:1-I:7, II:1-II:7; linker I:10-II:10 via Diglycolyl) | > 100 | – | – | Stabilty SIF t1/2, in hr ([1]; Table 3-B, alone or in parentheses after >360): 11 h; half-life at 22 μM ([1]; simulated intestinal fluid (SIF) with porcine pancreatin, pH 6.5, Table 3-B, > means experiment was stopped at that time and half life was not reached, read-out: Stabilty SIF t1/2): > 6 h; half-life at 22 μM ([1]; simulated intestinal fluid (SIF) with porcine pancreatin, pH 6.5, Table 3-B, alone or in parentheses after >360, read-out: Stabilty SIF t1/2, in hr (converted)): 10.7 h |
| CC(=O)N[C@H]1CSSC[C@@H](C(=O)NCC(=O)N[C@@H](CCC(=O)O)C(=O)N[C@@H](CCCCN)C(N)=O)NC(=O)[C@H](CC(C)C)NC(=O)[C@H]([C@@H](C)O)NC(=O)[C@H](CC(=O)O)NC(=O)[C@H](CO)NC(=O)[C@H](CCCNC(=N)N)NC1=O [compound 196, Ac-C-R-S-D-T-L-C-G-E-K-NH2] (Ac-CRSDTLCGEK-NH2; disulfide 1-7) | – | < 0.0667 | – | IC50 (α4β1; [5]): > 100 µM |
| CC(=O)N[C@@H]1C(=O)N(C)[C@@H](CCCNC(=N)N)C(=O)N[C@@H](CO)C(=O)N[C@@H](CC(=O)O)C(=O)N[C@@H]([C@@H](C)O)C(=O)N[C@@H](CC(C)C)C(=O)N[C@H](C(=O)N[C@@H](Cc2c[nH]c3ccccc23)C(=O)N[C@@H](CCC(=O)O)C(=O)N[C@H](CCCCNC(=O)COCC(=O)NCCCC[C@@H](NC(=O)[C@H](CCC(=O)O)NC(=O)[C@H](Cc2c[nH]c3ccccc23)NC(=O)[C@H]2NC(=O)[C@H](CC(C)C)NC(=O)[C@H]([C@@H](C)O)NC(=O)[C@H](CC(=O)O)NC(=O)[C@H](CO)NC(=O)[C@H](CCCNC(=N)N)N(C)C(=O)[C@@H](NC(C)=O)C(C)(C)SSC2(C)C)C(N)=O)C(N)=O)C(C)(C)SSC1(C)C [compound 67] (I: Ac-[Pen][NMeR]SDTL[Pen]WE[dK]-NH2 / II: Ac-[Pen][NMeR]SDTL[Pen]WE[dK]-NH2; disulfide I:1-I:7, II:1-II:7; linker I:10-II:10 via Diglycolyl) | > 100 | – | – | half-life at 22 μM [1, 6]: 2.02 h |
| CC(=O)N[C@H]1CSSC[C@@H](C(N)=O)NC(=O)[C@H](CC(C)C)NC(=O)[C@H]([C@@H](C)O)NC(=O)[C@H](CC(=O)O)NC(=O)[C@H](CO)NC(=O)[C@H](CCCNC(=N)N)NC1=O [compound 195, Ac-C-R-S-D-T-L-C-NH2] (Ac-CRSDTLC-NH2; disulfide 1-7) | – | < 0.0167 | 4.7 | – |
| CC(=O)N[C@H]1CSSC[C@@H](C(=O)NCC(=O)N[C@@H](CCC(=O)O)C(=O)N[C@@H](CCCCNC(=O)CCOCCOCCOCCOCCOCCOCCOCCOCCOCCOCCOCCOCCOCCOCCOCCOCCOCCOCCOCCOCCOCCOCCOCCOCCOCCC(=O)NCCCC[C@H](NC(=O)[C@H](CCC(=O)O)NC(=O)CNC(=O)[C@@H]2CSSC[C@H](NC(C)=O)C(=O)N[C@@H](CCCNC(=N)N)C(=O)N[C@@H](CO)C(=O)N[C@@H](CC(=O)O)C(=O)N[C@@H]([C@@H](C)O)C(=O)N[C@@H](CC(C)C)C(=O)N2)C(N)=O)C(N)=O)NC(=O)[C@H](CC(C)C)NC(=O)[C@H]([C@@H](C)O)NC(=O)[C@H](CC(=O)O)NC(=O)[C@H](CO)NC(=O)[C@H](CCCNC(=N)N)NC1=O [compound 197, (Ac-C-R-S-D-T-L-C-G-E-K-NH2)2-PEG25] (I: Ac-CRSDTLCGEK-NH2 / II: Ac-CRSDTLCGEK-NH2; disulfide I:1-I:7, II:1-II:7; linker I:10-II:10 via X2) | – | – | – | IC50 (α4β1; [5]): > 100 µM |
| CC(=O)N[C@@H]1C(=O)N(C)[C@@H](CCCNC(=N)N)C(=O)N[C@@H](CO)C(=O)N[C@@H](CC(=O)O)C(=O)N[C@@H]([C@@H](C)O)C(=O)N[C@@H](CC(C)C)C(=O)N[C@H](C(=O)N[C@@H](Cc2c[nH]c3ccccc23)C(=O)N[C@H](CCC(=O)O)C(=O)N[C@H](CCCCNC(=O)COCC(=O)NCCCC[C@@H](NC(=O)[C@@H](CCC(=O)O)NC(=O)[C@H](Cc2c[nH]c3ccccc23)NC(=O)[C@H]2NC(=O)[C@H](CC(C)C)NC(=O)[C@H]([C@@H](C)O)NC(=O)[C@H](CC(=O)O)NC(=O)[C@H](CO)NC(=O)[C@H](CCCNC(=N)N)N(C)C(=O)[C@@H](NC(C)=O)C(C)(C)SSC2(C)C)C(N)=O)C(N)=O)C(C)(C)SSC1(C)C [compound 68] (I: Ac-[Pen][NMeR]SDTL[Pen]W[dE][dK]-NH2 / II: Ac-[Pen][NMeR]SDTL[Pen]W[dE][dK]-NH2; disulfide I:1-I:7, II:1-II:7; linker I:10-II:10 via Diglycolyl) | > 100 | – | – | half-life at 22 μM [1, 6]: > 5 h |
| CC(=O)N[C@H]1CSSC[C@@H](C(=O)NCC(=O)N[C@@H](CCC(=O)O)C(N)=O)NC(=O)[C@H](CC(C)C)NC(=O)[C@H]([C@@H](C)O)NC(=O)[C@H](CC(=O)O)NC(=O)[C@H](CO)NC(=O)[C@H](CCCNC(=N)N)NC1=O [compound 194, Ac-C-R-S-D-T-L-C-G-E-NH2] (Ac-CRSDTLCGE-NH2; disulfide 1-7) | – | < 0.0167 | 5.5 | – |
